molecular target: T1, MAGL (Homo sapiens, UniProt Q99685); assay: MAGL inhibition, Table 1 values with no assay marker (2-AG or 4-NPA assay not stated); assay type: biochemical
T1 sequence (Q99685 1-303): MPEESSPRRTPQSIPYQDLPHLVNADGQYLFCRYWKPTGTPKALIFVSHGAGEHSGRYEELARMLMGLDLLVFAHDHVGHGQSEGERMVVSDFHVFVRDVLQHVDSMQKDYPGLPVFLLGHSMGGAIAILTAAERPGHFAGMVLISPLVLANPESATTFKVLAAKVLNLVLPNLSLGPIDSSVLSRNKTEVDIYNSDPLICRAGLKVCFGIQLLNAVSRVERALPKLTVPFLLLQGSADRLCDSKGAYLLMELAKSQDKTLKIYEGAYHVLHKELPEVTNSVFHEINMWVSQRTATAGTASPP
Method: Compounds were profiled for MAGL inhibitory activity by measuring the enzymatic activity of MAGL by following the hydrolysis of 4-nitrophenylacetate resulting in 4-nitrophenol, which absorbs at 405-412 nm (G. G. Muccioli, G. Labar, D. M. Lambert, Chem. Bio. Chem. 2008, 9, 2704-2710). This assay is hereinafter abbreviated “4-NPA assay”.
The 4-NPA assay was carried out in 384 well assay plates (black with clear bottom, non-binding surface treated, Corning Ref. 3655) in a total volume of 40 μL. Compound dilutions were made in 100% DMSO (VWR Chemicals 23500.297) in a polypropylene plate in 3-fold dilution steps to give a final concentration range in the assay from 25 μM to 1.7 nM. 1 μL compound dilutions (100% DMSO) were added to 19 μL MAGL (recombinant wild-type) in assay buffer (50 mM TRIS (GIBCO, 15567-027), 1 mM EDTA (Fluka, 03690-100 ml)). The plate was shaked for 1 min at 2000 rpm (Variomag Teleshake) and then incubated for 15 min at RT. To start the reaction, 20 μL 4-Nitrophenylacetate (Sigma N-8130) in assay buffer with 6% EtOH was added. The final concentrations in the assay were 1 nM MAGL and 300 μM 4-Nitrophenylacetate. After shaking (1 min, 2000 rpm) and 5 min incubation at RT, the absorbance at 405 nm was measured for a first time (Molecular Devices, SpectraMax Paradigm). A second measurement was then done after incubation for 80 min at RT. From the two measurements, the slope was calculated by subtracting the first from the second measurement.
Alternatively, compounds were profiled for MAGL inhibitory activity by determining the enzymatic activity by following the hydrolysis of the natural substrate 2-arachidonoylglycerol resulting in arachidonic acid, which can be followed by mass spectrometry. This assay is hereinafter abbreviated “2-AG assay”.
The 2-AG assay was carried out in 384 well assay plates (PP, Greiner Cat #784201) in a total volume of 20 μL. Compound dilutions were made in 100% DMSO (VWR Chemicals 23500.297) in a polypropylene plate in 3-fold dilution steps to give a final concentration range in the assay from 12.5 μM to […]. 0.25 μL compound dilutions (100% DMSO) were added to 9 μL MAGL in assay buffer (50 mM TRIS (GIBCO, 15567-027), 1 mM EDTA (Fluka, 03690-100 ml), 0.01% (v/v) Tween. After shaking, the plate was incubated for 15 min at RT. To start the reaction, 10 μL 2-arachidonoylglycerol in assay buffer was added. The final concentrations in the assay was […] and 8 μM 2-arachidonoylglycerol. After shaking and 30 min incubation at RT, the reaction was quenched by the addition of 40 μL of acetonitrile containing 4 μM of d8-arachidonic acid. The amount of arachidonic acid was traced by an online SPE system (Agilent Rapidfire) coupled to a triple quadrupole mass spectrometer (Agilent 6460). A C18 SPE cartridge (G9205A) was used in an acetonitrile/water liquid setup. The mass spectrometer was operated in negative electrospray mode following the mass transitions 303.1→259.1 for arachidonic acid and 311.1→267.0 for d8-arachidonic acid. The activity of the compounds was calculated based on the ratio of intensities [arachidonic acid/d8-arachidonic acid].

IC50 [nM]	Structure (SMILES)
2300	O=C1CO[C@H]2CCN(C(=O)N3CCC4(C3)CN(c3ccc(N5CCCC5=O)cc3)C4)C[C@H]2N1 [Example 61, (4aR,8aS)-6-(2-(4-(2-oxopyrrolidin-1-yl)phenyl)-2,6-diazaspiro[3.4]octane-6-carbonyl)hexahydro-2H-pyrido[4,3-b][1,4]oxazin-3(4H)-one]
58.8	COc1ccc(N2CC3(CCN(C(=O)N4CC[C@@H]5OCC(=O)N[C@@H]5C4)C3)C2)cc1C [Example 62, (4aR,8aS)-6-(2-(4-methoxy-3-methylphenyl)-2,6-diazaspiro[3.4]octane-6-carbonyl)hexahydro-2H-pyrido[4,3-b][1,4]oxazin-3(4H)-one]
15.9	O=C1CO[C@H]2CCN(C(=O)N3CCC4(C3)CN(c3ccc(Cl)c(C(F)(F)F)c3)C4)C[C@H]2N1 [Example 63, (4aR,8aS)-6-(2-(4-chloro-3-(trifluoromethyl)phenyl)-2,6-diazaspiro[3.4]octane-6-carbonyl)hexahydro-2H-pyrido[4,3-b][1,4]oxazin-3(4H)-one]
4970	O=C1CO[C@H]2CCN(C(=O)N3CCC4(C3)CN(c3ccnc(F)c3)C4)C[C@H]2N1 [Example 64, (4aR,8aS)-6-(2-(2-fluoropyridin-4-yl)-2,6-diazaspiro[3.4]octane-6-carbonyl)hexahydro-2H-pyrido[4,3-b][1,4]oxazin-3(4H)-one]
1100	O=C1CO[C@H]2CCN(C(=O)N3CC4(C3)CN(c3cc(C(F)(F)F)ccc3C(F)(F)F)C4)C[C@H]2N1 [Example 65, (4aR,8aS)-6-(6-(2,5-bis(trifluoromethyl)phenyl)-2,6-diazaspiro[3.3]heptane-2-carbonyl)hexahydro-2H-pyrido[4,3-b][1,4]oxazin-3(4H)-one]
195	O=C1CO[C@H]2CCN(C(=O)N3CC4(C3)CN(S(=O)(=O)c3ccc(F)cc3C(F)(F)F)C4)C[C@H]2N1 [Example 66, (4aR,8aS)-6-(6-((4-fluoro-2-(trifluoromethyl)phenyl)sulfonyl)-2,6-diazaspiro[3.3]heptane-2-carbonyl)hexahydro-2H-pyrido[4,3-b][1,4]oxazin-3(4H)-one]

The remaining lines, values behind:

Structure (SMILES)	IC50 [nM]
O=C1CO[C@H]2CCN(C(=O)N3CC4(CC(c5ccc(S(F)(F)(F)(F)F)cc5)C4)C3)C[C@H]2N1 [Example 46, (4aR,8aS)-6-(6-(4-(pentafluoro-l6-sulfaneyl)phenyl)-2-azaspiro[3.3]heptane-2-carbonyl)hexahydro-2H-pyrido[4,3-b][1,4]oxazin-3(4H)-one]	14.5
O=C1CO[C@H]2CCN(C(=O)N3CC4(CC(c5ccc(N6CCCC6C(F)(F)F)cc5)C4)C3)C[C@H]2N1 (stereo partly drawn) [Example 47, (4aR,8aS)-6-(6-(4-(2-(trifluoromethyl)pyrrolidin-1-yl)phenyl)-2-azaspiro[3.3]heptane-2-carbonyl)hexahydro-2H-pyrido[4,3-b][1,4]oxazin-3(4H)-one]	39.8
Cn1nccc1-c1ccc(C2CC3(C2)CN(C(=O)N2CC[C@@H]4OCC(=O)N[C@@H]4C2)C3)cc1 [Example 48, (4aR,8aS)-6-(6-(4-(1-methyl-1H-pyrazol-5-yl)phenyl)-2-azaspiro[3.3]heptane-2-carbonyl)hexahydro-2H-pyrido[4,3-b][1,4]oxazin-3(4H)-one]	223
O=C1CO[C@H]2CCN(C(=O)N3CC4(CC(Cc5ccc(C(F)(F)F)cc5F)C4)C3)C[C@H]2N1 [Example 49, (4aR,8aS)-6-(6-(2-fluoro-4-(trifluoromethyl)benzyl)-2-azaspiro[3.3]heptane-2-carbonyl)hexahydro-2H-pyrido[4,3-b][1,4]oxazin-3(4H)-one]	0.03
O=C1CO[C@H]2CCN(C(=O)N3CC4(CC(Cc5ccc(F)cc5Cl)C4)C3)C[C@H]2N1 [Example 50, (4aR,8aS)-6-(6-(2-chloro-4-fluorobenzyl)-2-azaspiro[3.3]heptane-2-carbonyl)hexahydro-2H-pyrido[4,3-b][1,4]oxazin-3(4H)-one]	0.04
O=C1CO[C@H]2CCN(C(=O)N3CC4(CC(Cc5ccc(F)cc5F)C4)C3)C[C@H]2N1 [Example 51, (4aR,8aS)-6-(6-(2,4-difluorobenzyl)-2-azaspiro[3.3]heptane-2-carbonyl)hexahdyro-2H-pyrido[4,3-b][1,4]oxazin-3(4H)-one]	0.17
COc1cc(C(F)(F)F)ccc1CC1CC2(C1)CN(C(=O)N1CC[C@@H]3OCC(=O)N[C@@H]3C1)C2 [Example 52, (4aR,8aS)-6-(6-(2-methoxy-4-(trifluoromethyl)benzyl)-2-azaspiro[3.3]heptane-2-carbonyl)hexahydro-2H-pyrido[4,3-b][1,4]oxazin-3(4H)-one]	0.03
O=C1CO[C@H]2CCN(C(=O)N3CC4(CC(Cc5c(F)cccc5C(F)(F)F)C4)C3)C[C@H]2N1 [Example 53, (4aR,8aS)-6-(6-(2-fluoro-6-(trifluoromethyl)benzyl)-2-azaspiro[3.3]heptane-2-carbonyl)hexahydro-2H-pyrido[4,3-b][1,4]oxazin-3(4H)-one]	0.05
O=C1CO[C@H]2CCN(C(=O)N3CC4(CC(COc5ccc(F)cc5Cl)C4)C3)C[C@H]2N1 [Example 54, (4aR,8aS)-6-(6-((2-chloro-4-fluorophenoxy)methyl)-2-azaspiro[3.3]heptane-2-carbonyl)hexahydro-2H-pyrido[4,3-b][1,4]oxazin-3(4H)-one]	1.46
O=C1CO[C@H]2CCN(C(=O)N3CC4(C3)CN(c3ccc(C(F)(F)F)cc3)C4)C[C@H]2N1 [Example 55, (4aR,8aS)-6-(6-(4-(trifluoromethyl)phenyl)-2,6-diazaspiro[3.3]heptane-2-carbonyl)hexahydro-2H-pyrido[4,3-b][1,4]oxazin-3(4H)-one]	1040
O=C1CO[C@H]2CCN(C(=O)N3CC4(C3)CN(c3cccc(C(F)(F)F)c3)C4)C[C@H]2N1 [Example 56, (4aR,8aS)-6-(6-(3-(trifluoromethyl)phenyl)-2,6-diazaspiro[3.3]heptane-2-carbonyl)hexahydro-2H-pyrido[4,3-b][1,4]oxazin-3(4H)-one]	361
O=C1CO[C@H]2CCN(C(=O)N3CCC4(C3)CN(c3ccc(C(F)(F)F)cc3)C4)C[C@H]2N1 [Example 57, (4aR,8aS)-6-(2-(4-(trifluoromethyl)phenyl)-2,6-diazaspiro[3.4]octane-6-carbonyl)hexahydro-2H-pyrido[4,3-b][1,4]oxazin-3(4H)-one]	175
O=C1CO[C@H]2CCN(C(=O)N3CCC4(C3)CN(c3cccc(C(F)(F)F)c3)C4)C[C@H]2N1 [Example 58, (4aR,8aS)-6-(2-(3-(trifluoromethyl)phenyl)-2,6-diazaspiro[3.4]octane-6-carbonyl)hexahydro-2H-pyrido[4,3-b][1,4]oxazin-3(4H)-one]	70.7
CC(C)Oc1ccc(N2CC3(CCN(C(=O)N4CC[C@@H]5OCC(=O)N[C@@H]5C4)C3)C2)cc1 [Example 59, (4aR,8aS)-6-(2-(4-isopropoxyphenyl)-2,6-diazaspiro[3.4]octane-6-carbonyl)hexahydro-2H-pyrido[4,3-b][1,4]oxazin-3(4H)-one]	297
CC(C)Oc1ccc(N2CC3(CN(C(=O)N4CC[C@@H]5OCC(=O)N[C@@H]5C4)C3)C2)cc1 [Example 60, (4aR,8aS)-6-(6-(4-isopropoxyphenyl)-2,6-diazaspiro[3.3]heptane-2-carbonyl)hexahydro-2H-pyrido[4,3-b][1,4]oxazin-3(4H)-one]	1590

Reference: US12577257B2, “Heterocyclic compounds” (Hoffmann-La Roche Inc., priority 2018, dated 2026)
